According to ChEMBL document CHEMBL1909046, “DrugMatrix in vitro pharmacology data”:
*1 amine or outer side, *2 acyl side, *3 side chain or, on linkers, in order; H or OH if unused. Where a SMILES comes first, the peptide text is derived from it. Bridges are numbered along the chain shown (N, C = ends). Roman numbers before positions name the chains, in order. [ ]: non-standard residue; d: D form. Actinocin(1to9) = Cc1c2oc3c(C)ccc(C(=O)[*:2])c3nc-2c(C(=O)[*:1])c(N)c1=O; NMeV = CN[C@H](C(=O)O)C(C)C; Sar = CNCC(=O)O

Columns and labels:
Substance-K receptor = molecular target: T1, Substance-K receptor (Homo sapiens, UniProt P21452); type: cell membranes, CHO, Membrane; also: in other assays of this panel Not Active means under 50% inhibition at 10 µM
T1 sequence (P21452 whole entry): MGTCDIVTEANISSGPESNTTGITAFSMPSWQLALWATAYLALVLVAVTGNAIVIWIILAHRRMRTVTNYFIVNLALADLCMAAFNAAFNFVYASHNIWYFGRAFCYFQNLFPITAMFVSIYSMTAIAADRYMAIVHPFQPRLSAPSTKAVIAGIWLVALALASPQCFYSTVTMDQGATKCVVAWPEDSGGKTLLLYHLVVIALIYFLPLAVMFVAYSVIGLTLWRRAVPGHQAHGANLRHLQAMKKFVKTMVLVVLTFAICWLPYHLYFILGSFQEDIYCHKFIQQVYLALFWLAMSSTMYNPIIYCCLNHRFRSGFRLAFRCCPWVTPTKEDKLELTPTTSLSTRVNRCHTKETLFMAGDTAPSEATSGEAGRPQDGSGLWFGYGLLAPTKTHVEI

D(1A) dopamine receptor = D(1A) dopamine receptor (Homo sapiens, UniProt P21728); test: DRUGMATRIX: Dopamine D1 radioligand binding (ligand: [3H] SCH-23390); type: cell membranes, CHO, Membrane; details: Not Active = under 50% inhibition at 10 µM; for Ki: read-out: Ki
[1] = molecular target: Mitogen-activated protein kinase 14 (Homo sapiens, UniProt Q16539); design: species or system Escherichia coli;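 also: inhibition of p38alpha enzyme activity in a biochemical kinase assay, with myelin basic protein serving as substrate; in other assays of this panel Not Active means under 50% inhibition at 10 µM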
[2] = DRUGMATRIX: Sigma2 radioligand binding (ligand: [3H] Ifenprodil); type: cell membranes, Rattus norvegicus, Wistar, Brain, Membrane; details: Not Active = under 50% inhibition at 10 µM
[3] = molecular target: T2, Alpha-2A adrenergic receptor (Homo sapiens, UniProt P08913); type: cell membranes, Sf9, Membrane; details: for Ki: read-out: Ki; as to all read-outs here: in other assays of this panel Not Active means under 50% inhibition at 10 µM
T2 sequence (P08913 whole entry): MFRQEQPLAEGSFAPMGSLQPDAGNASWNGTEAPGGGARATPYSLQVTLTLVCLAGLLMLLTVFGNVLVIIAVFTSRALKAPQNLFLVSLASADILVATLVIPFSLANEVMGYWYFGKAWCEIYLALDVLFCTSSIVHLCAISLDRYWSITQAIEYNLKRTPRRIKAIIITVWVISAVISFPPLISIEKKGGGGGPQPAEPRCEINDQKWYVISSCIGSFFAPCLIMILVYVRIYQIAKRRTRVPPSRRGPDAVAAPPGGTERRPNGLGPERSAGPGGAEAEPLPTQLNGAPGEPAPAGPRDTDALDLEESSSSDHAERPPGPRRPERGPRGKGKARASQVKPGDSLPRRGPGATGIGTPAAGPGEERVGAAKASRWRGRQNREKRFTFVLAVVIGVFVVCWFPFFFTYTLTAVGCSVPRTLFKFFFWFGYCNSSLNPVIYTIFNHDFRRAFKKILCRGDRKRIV

Chain of D(1A) dopamine receptor (P21728 whole entry): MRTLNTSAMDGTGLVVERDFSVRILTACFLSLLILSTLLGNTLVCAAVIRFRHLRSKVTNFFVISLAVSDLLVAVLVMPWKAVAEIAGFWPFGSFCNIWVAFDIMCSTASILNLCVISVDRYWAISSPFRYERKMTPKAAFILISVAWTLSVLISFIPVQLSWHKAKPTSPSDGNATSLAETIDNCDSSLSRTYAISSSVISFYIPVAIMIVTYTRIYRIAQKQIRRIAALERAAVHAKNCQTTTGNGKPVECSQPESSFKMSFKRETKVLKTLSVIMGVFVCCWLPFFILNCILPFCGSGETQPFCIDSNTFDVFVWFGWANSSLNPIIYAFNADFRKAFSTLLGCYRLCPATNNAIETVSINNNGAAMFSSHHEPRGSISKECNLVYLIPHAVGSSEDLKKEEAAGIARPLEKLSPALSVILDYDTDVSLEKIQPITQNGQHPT
Chain of Mitogen-activated protein kinase 14 (Q16539 whole entry): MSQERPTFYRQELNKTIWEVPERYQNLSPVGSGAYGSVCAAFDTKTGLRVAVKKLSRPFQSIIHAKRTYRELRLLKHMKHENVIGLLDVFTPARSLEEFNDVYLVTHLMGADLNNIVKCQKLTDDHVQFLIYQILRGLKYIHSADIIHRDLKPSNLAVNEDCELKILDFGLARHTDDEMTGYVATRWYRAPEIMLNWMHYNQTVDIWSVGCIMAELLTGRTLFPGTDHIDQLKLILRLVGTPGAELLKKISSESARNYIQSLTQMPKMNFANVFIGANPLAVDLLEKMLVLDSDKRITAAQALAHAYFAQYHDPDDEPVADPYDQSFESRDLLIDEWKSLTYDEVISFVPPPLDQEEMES

| SMILES | IC50 (Substance-K receptor; cho) | IC50 (D(1A) dopamine receptor; cho) | IC50 [1] | IC50 [2] | Ki [2] | IC50 ([3]; sf9) | IC50 ([1]; read-out: IC50) [nM] | IC50 (D(1A) dopamine receptor; read-out: IC50) [nM] | Ki (D(1A) dopamine receptor) [nM] | IC50 ([3]; read-out: IC50) [nM] | Ki [3] [nM] | IC50 (Substance-K receptor; read-out: IC50) [nM] | Ki (Substance-K receptor; read-out: Ki) [nM] | IC50 ([2]; read-out: IC50) [nM] | Ki ([2]; read-out: Ki) [nM] |
| --- | --- | --- | --- | --- | --- | --- | --- | --- | --- | --- | --- | --- | --- | --- | --- |
| CC(C)(Oc1ccc(Cl)cc1)C(=O)O [CLOFIBRIC ACID] | Not Active | Not Active | Not Active | Not Active | Not Active | Not Active |  |  |  |  |  |  |  |  |  |
| Cc1cc(C(C#N)c2ccc(Cl)cc2)c(Cl)cc1NC(=O)c1cc(I)cc(I)c1O (configuration not stated) [CLOSANTEL] | Not Active | Not Active |  | Not Active | Not Active | Not Active | 656 |  |  |  |  |  |  |  |  |
| Cc1onc(-c2ccccc2Cl)c1C(=O)N[C@@H]1C(=O)N2[C@@H]1SC(C)(C)[C@@H]2C(=O)O [CLOXACILLIN] | Not Active | Not Active | Not Active | Not Active | Not Active | Not Active |  |  |  |  |  |  |  |  |  |
| CC1CC(OC(=O)C(O)c2ccccc2)CC(C)(C)C1 (configuration not stated) [CYCLANDELATE] | Not Active | Not Active | Not Active | Not Active | Not Active | Not Active |  |  |  |  |  |  |  |  |  |
| Cc1c2oc3c(C)ccc(C(=O)N[C@@H]4C(=O)N[C@H](C(C)C)C(=O)N5CCC[C@H]5C(=O)N(C)CC(=O)N(C)[C@@H](C(C)C)C(=O)O[C@@H]4C)c3nc-2c(C(=O)N[C@@H]2C(=O)N[C@H](C(C)C)C(=O)N3CCC[C@H]3C(=O)N(C)CC(=O)N(C)[C@@H](C(C)C)C(=O)O[C@@H]2C)c(N)c1=O [DACTINOMYCIN] (I: T[dV]P[Sar][NMeV] / II: T[dV]P[Sar][NMeV]; ester I:1-I:C, II:1-II:C; linker I:N-II:N via Actinocin(1to9)) | Not Active | Not Active | Not Active | Not Active | Not Active | Not Active |  |  |  |  |  |  |  |  |  |
| Cc1c(O)c(=O)ccn1C [DEFERIPRONE] | Not Active | Not Active | Not Active | Not Active | Not Active | Not Active |  |  |  |  |  |  |  |  |  |
| CNCCCN1c2ccccc2CCc2ccccc21 [DESIPRAMINE] | Not Active | Not Active | Not Active | Not Active | Not Active | Not Active |  |  |  |  |  |  |  |  |  |
| O=c1oc2ccccc2c(O)c1Cc1c(O)c2ccccc2oc1=O [DICUMAROL] | Not Active | Not Active | Not Active | Not Active | Not Active | Not Active |  |  |  |  |  |  |  |  |  |
| C[C@H]1O[C@@H](O[C@H]2[C@@H](O)C[C@H](O[C@H]3[C@@H](O)C[C@H](O[C@H]4CC[C@@]5(C)[C@H](CC[C@@H]6[C@@H]5C[C@@H](O)[C@]5(C)[C@@H](C7=CC(=O)OC7)CC[C@]65O)C4)O[C@@H]3C)O[C@@H]2C)C[C@H](O)[C@@H]1O [DIGOXIN] | Not Active | Not Active | Not Active | Not Active | Not Active | Not Active |  |  |  |  |  |  |  |  |  |
| CC(C)[C@@]1(NC(=O)[C@@H]2C[C@@H]3c4cccc5[nH]cc(c45)C[C@H]3N(C)C2)O[C@@]2(O)[C@@H]3CCCN3C(=O)[C@H](Cc3ccccc3)N2C1=O.CS(=O)(=O)O [DIHYDROERGOCRISTINE MESYLATE] | Not Active |  | Not Active | Not Active | Not Active |  |  | 1180 | 589 | 1.99 | 0.747 |  |  |  |  |
| CC(=O)O[C@@]12CO[C@@H]1C[C@H](O)[C@@]1(C)C(=O)[C@H](O)C3=C(C)[C@@H](OC(=O)[C@H](O)[C@@H](NC(=O)OC(C)(C)C)c4ccccc4)C[C@@](O)([C@@H](OC(=O)c4ccccc4)[C@H]21)C3(C)C.O.O.O [DOCETAXEL] |  | Not Active | Not Active | Not Active | Not Active | Not Active |  |  |  |  |  | 1560 | 521 |  |  |
| COc1cc2nc(N3CCN(C(=O)C4COc5ccccc5O4)CC3)nc(N)c2cc1OC (configuration not stated) [DOXAZOSIN] | Not Active | Not Active | Not Active | Not Active | Not Active | Not Active |  |  |  |  |  |  |  |  |  |
| C[C@H]1c2cccc(O)c2C(=O)C2=C(O)[C@]3(O)C(=O)C(C(N)=O)=C(O)[C@@H](N(C)C)[C@@H]3[C@@H](O)[C@@H]21.O [DOXYCYCLINE] | Not Active | Not Active | Not Active | Not Active | Not Active | Not Active |  |  |  |  |  |  |  |  |  |
| O=C(CCCN1CC=C(n2c(=O)[nH]c3ccccc32)CC1)c1ccc(F)cc1 [DROPERIDOL] | Not Active |  | Not Active |  |  |  |  | 1090 | 546 | 2960 | 1110 |  |  | 3280 | 2020 |
| CC(C)[C@H]1C(=O)N2CCC[C@H]2[C@]2(O)O[C@](NC(=O)[C@@H]3C=C4c5cccc6[nH]cc(c56)C[C@H]4N(C)C3)(C(C)C)C(=O)N12 [ERGOCORNINE] | Not Active |  | Not Active | Not Active | Not Active |  |  | 294 | 147 | 6.3 | 2.36 |  |  |  |  |
| C[C@]12CC[C@@H]3c4ccc(O)cc4CC[C@H]3[C@@H]1CCC2=O [ESTRONE] | Not Active | Not Active | Not Active | Not Active | Not Active | Not Active |  |  |  |  |  |  |  |  |  |
| OC(Cn1cncn1)(Cn1cncn1)c1ccc(F)cc1F [FLUCONAZOLE] | Not Active | Not Active | Not Active | Not Active | Not Active | Not Active |  |  |  |  |  |  |  |  |  |
| CC(C)C(=O)Nc1ccc([N+](=O)[O-])c(C(F)(F)F)c1 [FLUTAMIDE] | Not Active | Not Active | Not Active | Not Active | Not Active | Not Active |  |  |  |  |  |  |  |  |  |
| N=C(N)NCCN1CCCCCCC1 [GUANETHIDINE] | Not Active | Not Active | Not Active | Not Active | Not Active | Not Active |  |  |  |  |  |  |  |  |  |
| CC1(C)O[C@@H]2C[C@H]3[C@@H]4CCC5=CC(=O)CC[C@]5(C)[C@@]4(F)[C@@H](O)C[C@]3(C)[C@]2(C(=O)CCl)O1 [HALCINONIDE] | Not Active | Not Active | Not Active | Not Active | Not Active | Not Active |  |  |  |  |  |  |  |  |  |
| O=c1[nH]c(=O)n([C@H]2C[C@H](O)[C@@H](CO)O2)cc1I [IDOXURIDINE] | Not Active | Not Active | Not Active | Not Active | Not Active | Not Active |  |  |  |  |  |  |  |  |  |
| CC1Cc2ccccc2N1NC(=O)c1ccc(Cl)c(S(N)(=O)=O)c1 (configuration not stated) [INDAPAMIDE] | Not Active | Not Active | Not Active | Not Active | Not Active | Not Active |  |  |  |  |  |  |  |  |  |
| Nc1nc(N)nc(-c2cc(Cl)ccc2Cl)n1.O=C(O)/C=C\C(=O)O [IRSOGLADINE MALEATE] | Not Active | Not Active | Not Active | Not Active | Not Active | Not Active |  |  |  |  |  |  |  |  |  |
| CCC(C)n1ncn(-c2ccc(N3CCN(c4ccc(OCC5COC(Cn6cncn6)(c6ccc(Cl)cc6Cl)O5)cc4)CC3)cc2)c1=O (configuration not stated) [ITRACONAZOLE] | Not Active | Not Active | Not Active | Not Active | Not Active | Not Active |  |  |  |  |  |  |  |  |  |
| CCCCN1CCCC[C@H]1C(=O)Nc1c(C)cccc1C [LEVOBUPIVACAINE] | Not Active | Not Active | Not Active | Not Active | Not Active | Not Active |  |  |  |  |  |  |  |  |  |
| CCCCc1nc(Cl)c(CO)n1Cc1ccc(-c2ccccc2-c2nnn[nH]2)cc1 [LOSARTAN] | Not Active | Not Active | Not Active | Not Active | Not Active | Not Active |  |  |  |  |  |  |  |  |  |
| Sc1ncnc2nc[nH]c12 [MERCAPTOPURINE ANHYDROUS] | Not Active | Not Active | Not Active | Not Active | Not Active | Not Active |  |  |  |  |  |  |  |  |  |
| C[C@](N)(Cc1ccc(O)c(O)c1)C(=O)O [METHYLDOPA] | Not Active | Not Active | Not Active | Not Active | Not Active | Not Active |  |  |  |  |  |  |  |  |  |
| C[C@]12CCC(=O)C=C1CC[C@@H]1[C@@H]2CC[C@@]2(C)[C@H]1CC[C@]2(C)O [METHYLTESTOSTERONE] | Not Active | Not Active | Not Active | Not Active | Not Active | Not Active |  |  |  |  |  |  |  |  |  |
| Cc1ccccc1N1C(=O)c2cc(S(N)(=O)=O)c(Cl)cc2NC1C (configuration not stated) [METOLAZONE] | Not Active | Not Active | Not Active | Not Active | Not Active | Not Active |  |  |  |  |  |  |  |  |  |
